Test results taken from patent EP0241395A2, “Sweeteners derived from n-phenylguanidinoacetic and n-phenylethananamidinacetic acids, and compositions containing such sweeteners” (UNIVERSITE CLAUDE BERNARD - LYON 1, priority 1986, dated 1987).

Test system: groupe de huit goûteurs expérimentés
Assay: Sweetening power judged by a panel of eight experienced tasters against a sucrose reference solution
Format: in vivo
Conditions: weight basis; for Pouvoir édulcorant: Table II, relative to a 2 % sucrose solution; for pouvoir édulcorant, sur une base pondérale: by comparison with a 2 % sucrose solution, approximate
Source text: Le pouvoir édulcorant des composés préparés dans les exemples suivants a été évalué par un groupe de huit goûteurs expérimentés. Pour cela, les composés, en solution aqueuse à des concentrations variables, sont comparés, sur le plan gustatif, à une solution témoin de saccharose à 2 % et dans certains cas à 5 % et 10 %, c'est-à-dire à des concentrations correspondant à celles utilisées lors d'un usage courant. Le pouvoir sucrant des édulcorants de synthèse varie en effet suivant la concentration de la solution de saccharose utilisée comme référence. Le pouvoir édulcorant du composé testé par rapport au saccharose correspond alors au rapport pondéral qui existe entre le composé et le saccharose à égale intensité édulcorante, c'est-à-dire quand les saveurs sucrées de la solution du composé testé et de la solution témoin de saccharose sont considérées, par une majorité de goûteurs, avoir la même intensité édulcorante.

Row | SMILES | Pouvoir édulcorant | pouvoir édulcorant, sur une base pondérale
1 | C[C@H](NC(=Nc1ccccc1)NCC(=O)O)c1ccccc1 [Exemple 1, acide N-[N-(S)-α-méthylbenzylamine (phénylimino)méthyl]-2-aminoéthanoïque] | 5000 | ~5 000 fois celui du saccharose
2 | C[C@H](NC(=Nc1cccc(Br)c1)NCC(=O)O)c1ccccc1 [Exemple 2, acide N-[N-(S)-a-méthylbenzylamino (3-bromophénylimino)méthyl]-2-aminoéthanoïque] | 25000 | ~25 000 fois celui du saccharose
3 | C[C@H](NC(=Nc1cccc(C(F)(F)F)c1)NCC(=O)O)c1ccccc1 [Exemple 3] | 7 500 | ~7 500 fois celui du saccharose
4 | Cc1cccc(N=C(NCC(=O)O)N[C@@H](C)c2ccccc2)c1 [Exemple 4, acide N-[N (S)-α-méthylbenzylamino (3-méthylphénylimino)méthyl]-2-aminoéthanoïque] | 12000 | ~12 000 fois celui du saccharose
5 | CCc1cccc(N=C(NCC(=O)O)N[C@@H](C)c2ccccc2)c1 [Exemple 5, acide N-[N-(S) -α-méthylbenzylamino (3-éthylphénylimino)méthyl]-2-aminoéthanoïque] | 4 500 | ~4 500 fois celui du saccharose
6 | C[C@H](NC(=Nc1cccc(Cl)c1)NCC(=O)O)c1ccccc1 [Exemple 6, acide N-[N-(S)-α-méthylbenzylamino (3-chlorophénylimino)méthyl]-2-aminoéthanoïque] | 30000 | ~30 000 fois celui du saccharose
7 | C[C@H](NC(=Nc1cccc(C#N)c1)NCC(=O)O)c1ccccc1 [Exemple 7, acide N-[N-(S)-α-méthylbenzylamino (3-cyanophénylimino)méthyl]-2-aminoéthanoïque] | 5 500 | ~5 500 fois celui du saccharose
8 | C[C@H](NC(=Nc1cccc([N+](=O)[O-])c1)NCC(=O)O)c1ccccc1 [Exemple 8, acide N-[N-(S)-α-méthylbenzylamino (3-nitrophénylimino)méthyl] -2-aminoéthanoique] | 6000 | ~6 000 fois celui du saccharose
9 | COc1cccc(N=C(NCC(=O)O)N[C@@H](C)c2ccccc2)c1 [Exemple 9, acide N-[N-(S)-ot-méthylbenzylamino (3-méthoxyphénylimino)méthyl]-2-aminoéthanoïque] | 4 500 | ~4 500 fois celui du saccharose
10 | CSc1cccc(N=C(NCC(=O)O)N[C@@H](C)c2ccccc2)c1 [Exemple 10, acide N-[N-(S)-a-méthylbenzylamino (3-méthylmercaptophénylimino)méthyl]-2-aminoéthanoïque] | 5 500 | ~5 500 fois celui du saccharose
11 | C[C@H](NC(=Nc1ccc(C(F)(F)F)cc1)NCC(=O)O)c1ccccc1 [Exemple 11, acide N-[N-(S)-α-méthylbenzylamino (4-trifluorométhylphénylimino)méthyl]-2-aminoéthanoïque] | 500 | ~500 fois celui du saccharose
12 | Cc1ccc(N=C(NCC(=O)O)N[C@@H](C)c2ccccc2)cc1 [Exemple 12, acide N-[N-(S)-a-méthylbenzylamino (4-méthylphénylimino)méthyl]-2-aminoéthanoïque] | 800 | ~800 fois celui du saccharose
13 | C[C@H](NC(=Nc1ccc(Cl)cc1)NCC(=O)O)c1ccccc1 [Exemple 13, acide N-[N-(S)-α-méthylbenzylamino (4-chlorophénylimino)méthyl]-2-aminoéthanoïque] | 3000 | ~3 000 fois celui du saccharose
14 | CC(=O)c1ccc(N=C(NCC(=O)O)N[C@@H](C)c2ccccc2)cc1 [Exemple 15, acide N-[N-(S) -α-méthylbenzylamino (4-acétylphénylimino)méthyl]-2-aminoéthanoïque] | 800 | ~800 fois celui du saccharose
15 | COC(=O)c1ccc(N=C(NCC(=O)O)N[C@@H](C)c2ccccc2)cc1 [Exemple 16, acide N-[N-(S)-α-méthylbenzylamino (4-méthoxycarbonylphénylimino)méthyl]-2-aminoéthanoïque] | 700 | ~700 fois celui du saccharose
16 | C[C@H](N=C(NCC(=O)O)Nc1ccc(F)cc1)c1ccccc1 [Exemple 17, acide N-[N-(S)-α-méthylbenzylamine (4-fluorophénylimino)méthyl]-2-aminoéthanoïque] | 4000 | ~4 000 fois celui du saccharose
17 | C[C@H](NC(=Nc1ccc([N+](=O)[O-])cc1)NCC(=O)O)c1ccccc1 [Exemple 18, acide N-[N-(S)-a-méthylbenzylamino (4-nitrophénylimino)méthyl]-2-aminoéthanoïque] | 7000 | ~7 000 fois celui du saccharose
18 | COc1ccc(N=C(NCC(=O)O)N[C@@H](C)c2ccccc2)cc1 [Exemple 19, acide N-[N-(S)-α-méthylbenzylamino (4-méthoxyphénylimino)méthyl]-2-aminoéthanoïque] | 2 100 | ~2100 times sucrose
19 | C[C@H](NC(=Nc1ccc(O)cc1)NCC(=O)O)c1ccccc1 [Exemple 20, acide N-[N-(S)-α-méthylbenzylamino (4-hydroxyphénylimino)méthyl]-2-aminoéthanoïque] | 400 | ~400 fois celui du saccharose
20 | CSc1ccc(N=C(NCC(=O)O)N[C@@H](C)c2ccccc2)cc1 [Exemple 21, acide N-[N-(S)-a-méthylbenzylamino (4-méthylmercaptophénylimino)méthyl)-2-aminoéthanoïque] | 1200 | ~1200 times sucrose
21 | Cc1cc(N=C(NCC(=O)O)N[C@@H](C)c2ccccc2)ccc1C#N [Exemple 22, acide N-[N-(S)-a-méthylbenzylamino (4-cyano-3-méthylphénylimino)méthyl]-2-aminoéthanoïque] | 50000 | ~50 000 fois celui du saccharose
22 | C[C@H](NC(=Nc1ccc(Cl)c(Cl)c1)NCC(=O)O)c1ccccc1 [Exemple 23, acide N-[N-(S) -α-méthylbenzylamino (3,4-dichlorophénylimino)méthyl]-2-aminoéthanoïque] | 17000 | ~17 000 fois celui du saccharose
23 | COc1cc(NC(=N[C@@H](C)c2ccccc2)NCC(=O)O)cc(C(F)(F)F)c1 [Exemple 24, acide N-[N-(S)-α-méthylbenzylamino (3-trifluorométhyl-5-méthoxyphénylimino)méthyl]-2-amino-éthanoïque] | 7000 | ~7 000 fois celui du saccharose
24 | Cc1cc(C)cc(N=C(NCC(=O)O)N[C@@H](C)c2ccccc2)c1 [Exemple 25, acide N-[N-(S)-α-méthylbenzylamino (3,5-diméthylphénylimino)méthyl]-2-aminoéthanoïque] | 30000 | ~30 000 fois celui du saccharose
